From patent publication US20220105029A1, “BIODEGRADABLE CHITOSAN MICRONEEDLE PATCH FOR TRANSDERMAL DELIVERY FOR LIVESTOCK PAIN MANAGEMENT” (THE BOARD OF TRUSTEES OF THE UNIVERSITY OF ARKANSAS, priority 2020, published 2022)

Columns and labels:
[1] = Solubility of meloxicam in solvents; format: physicochemical
[2] = cited from earlier work

- solubility in acetic acid [1]: not soluble
SMILES: Cc1cnc(NC(=O)C2=C(O)c3ccccc3S(=O)(=O)N2C)s1 [meloxicam]
- solubility in acids [2]: not dissolving in acids
- solubility in dimethyl sulfoxide (DMSO) [2]: dissolves completely
